Experimental findings from paper PMC12226413, “Downregulation of O‐GlcNAcylation enhances etoposide‐induced p53‐mediated apoptosis in HepG2 human liver cancer cells” (FEBS Open Bio, 2025) are described below.

Assay [1] addresses T1, Recombinant human OGT protein (O-GlcNAc transferase) (Homo sapiens, UniProt O15294).
T1 construct: recombinant human OGT from R&D Systems
T1 sequence (O15294 2-1046): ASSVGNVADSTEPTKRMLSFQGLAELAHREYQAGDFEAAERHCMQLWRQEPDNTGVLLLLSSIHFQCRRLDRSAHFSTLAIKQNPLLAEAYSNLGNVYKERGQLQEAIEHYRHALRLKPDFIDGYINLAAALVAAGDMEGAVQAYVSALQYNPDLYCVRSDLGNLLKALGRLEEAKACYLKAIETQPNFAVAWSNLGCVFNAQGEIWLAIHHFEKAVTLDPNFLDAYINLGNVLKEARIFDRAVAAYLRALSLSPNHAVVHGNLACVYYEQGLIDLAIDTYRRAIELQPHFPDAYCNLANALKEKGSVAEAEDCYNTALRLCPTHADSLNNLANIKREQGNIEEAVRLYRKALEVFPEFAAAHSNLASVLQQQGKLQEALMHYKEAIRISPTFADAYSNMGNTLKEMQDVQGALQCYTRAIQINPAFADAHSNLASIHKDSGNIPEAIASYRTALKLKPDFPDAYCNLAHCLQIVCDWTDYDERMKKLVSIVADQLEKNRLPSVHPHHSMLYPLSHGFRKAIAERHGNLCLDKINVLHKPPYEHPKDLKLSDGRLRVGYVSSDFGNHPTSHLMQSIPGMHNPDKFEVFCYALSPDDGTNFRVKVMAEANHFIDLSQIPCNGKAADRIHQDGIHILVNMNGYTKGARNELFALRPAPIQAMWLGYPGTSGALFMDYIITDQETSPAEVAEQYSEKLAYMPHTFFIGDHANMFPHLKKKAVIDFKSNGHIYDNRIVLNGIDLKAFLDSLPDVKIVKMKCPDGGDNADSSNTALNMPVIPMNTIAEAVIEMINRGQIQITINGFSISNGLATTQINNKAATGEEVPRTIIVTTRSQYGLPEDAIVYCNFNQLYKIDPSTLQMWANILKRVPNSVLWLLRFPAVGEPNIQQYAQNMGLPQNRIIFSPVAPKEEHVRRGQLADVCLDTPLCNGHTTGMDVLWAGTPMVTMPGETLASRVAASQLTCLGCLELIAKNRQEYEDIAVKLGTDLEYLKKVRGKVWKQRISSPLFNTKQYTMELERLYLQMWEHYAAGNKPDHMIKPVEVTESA
The experiment in a line: UDP-Glo glycosyltransferase assay (luminescence). The format is biochemical.

Assay [2] has as its target T1, Recombinant human OGT protein (O-GlcNAc transferase). Briefly: UDP-Glo glycosyltransferase assay (luminescence). The format is biochemical. The note with it: UDP-GlcNAc and peptide KKKYPGGSTPVSSANMM as substrates; 25 mM Tris pH 7.5, 12.5 mM MgCl2, 0.06 mg/mL BSA, 1 mM DTT; unreliable.

As usually defined, the IC50 is the midpoint of a concentration-inhibition curve. Regarding `COc1ccccc1[C@@H](NS(=O)(=O)c1ccc2[nH]c(=O)ccc2c1)C(=O)N(Cc1ccco1)Cc1cccs1` [OSMI-1], in assay [1], the IC50 turned out to be 4.47 µM. Regarding `COc1cc([C@@H]2c3cc4c(cc3[C@@H](O[C@@H]3O[C@@H]5CO[C@@H](C)O[C@H]5[C@H](O)[C@H]3O)[C@H]3COC(=O)[C@H]23)OCO4)cc(OC)c1O` [Etoposide], the “% inhibition at 400 μM” value in assay [2] is on record as ~ 47.3%.
